Patent US11542293B2, “Sting modulator compounds, and methods of making and using” (Takeda Pharmaceutical Company Limited, priority 2017, dated 2023)
Like-named read-outs stand apart in the source and are kept apart here.

Experiments:
[1] = biological target: Human STING (residues 140-379, H232R) (Homo sapiens (Human), UniProt Q86WV6, H232R); assay: Human STING TR-FRET Assay; details: read-out: Enz-TR-Fret IC50, fluorescein labeled ligand 100 nM, STING protein 100 nM, 60 minutes at rt
Method: The sequence was verified before recombinant protein expression using E. coli expression system.
For expression, STING expression vector was transformed into BL21(DE3) cells. The expression was induced by adding IPTG and expressing in 16° C. for 20 hours.
Biotinylation was confirmed by Mass Spectrometry analysis.
Then 2 uL STING assay buffer containing STING protein (100 nM final) was added and the mixture was incubated at rt for 60 minutes. The plates were then read on a BMG PheraStar Plus reader (LanthaScreen module).
For the assay method described above, test compound percent inhibition, at various concentrations, was calculated relative to untreated and DMSO only treated samples. Compound concentration versus percent inhibition curves were fitted to generate IC50 values.

[2] = test system: THP1-Dual cells (ISG54 promoter Lucia luciferase reporter); assay: THP-1 Dual Lucia Reporter Gene Assay; type: cell-based, human; details: Lucia luciferase signal induction, 20 hours at 37° C., read-out: Cellular THP 1 EC50
Method: THP1-Dual™ cells (InvivoGen #thpd-nfis) were derived from the human THP-1 monocyte cell line by stable integration of the Lucia luciferase gene, a secreted luciferase reporter gene, under the control of an ISG54 (interferon-stimulated gene) minimal promoter in conjunction with five interferon (IFN)-stimulated response elements. […] The cell plates were dosed with 62.5 nL of the testing compounds, and then incubated at 37° C. for 20 hours. At the end of the incubation, 15 μL/well of the QUANTI-Luc™ (InvivoGen #rep-q1c1) were added, and luminescence was measured immediately using the LeadSeeker.
Compound concentration versus percent signal induction curves were fitted to generate EC50 values.

Chain of Human STING (residues 140-379, H232R) (Q86WV6 140-379 H232R): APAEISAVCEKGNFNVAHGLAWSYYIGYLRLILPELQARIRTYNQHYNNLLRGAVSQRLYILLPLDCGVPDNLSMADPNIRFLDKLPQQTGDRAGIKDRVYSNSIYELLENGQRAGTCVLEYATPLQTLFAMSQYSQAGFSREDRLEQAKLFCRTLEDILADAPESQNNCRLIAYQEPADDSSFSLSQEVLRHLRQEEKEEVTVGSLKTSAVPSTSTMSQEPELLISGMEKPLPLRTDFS

Compound | IC50 [1] [µM] | EC50 ([2]; Homo sapiens, THP1-Dual, 20 h) [µM] | EC50 [2] [µM]
Nc1nc2c(ncn2[C@@H]2O[C@@H]3COP(=O)(S)O[C@@H]4[C@@H](COP(=O)(S)O[C@@H]2[C@@H]3O)C[C@@H](Oc2ccncn2)[C@@H]4F)c(=O)[nH]1 (single isomer, unassigned) [Compound I-39a] | < 1 | 1 to 10 | –
Nc1nc2c(ncn2[C@@H]2O[C@@H]3COP(=O)(S)O[C@@H]4[C@@H](COP(=O)(S)O[C@@H]2[C@@H]3O)C[C@@H](Oc2ccncn2)[C@@H]4F)c(=O)[nH]1 (single isomer, unassigned) [Compound I-39b] | < 1 | – | < 1
Nc1nc2c(ncn2[C@@H]2O[C@@H]3COP(=O)(O)O[C@@H]4[C@@H](COP(=O)(S)O[C@@H]2[C@@H]3O)C[C@@H](Nc2ncncn2)[C@@H]4F)c(=O)[nH]1 (single isomer, unassigned) [Compound I-42] | < 1 | 1 to 10 | –
Nc1nc2c(ncn2[C@@H]2O[C@@H]3COP(=O)(S)O[C@@H]4[C@@H](COP(=O)(O)O[C@@H]2[C@@H]3O)C[C@@H](Nc2ncncn2)[C@@H]4F)c(=O)[nH]1 (single isomer, unassigned) [Compound I-43] | – | 1 to 10 | –
Nc1nc2c(ncn2[C@@H]2O[C@@H]3COP(=O)(S)O[C@@H]4[C@@H](COP(=O)(S)O[C@@H]2[C@@H]3O)C[C@@H](Nc2ncncn2)[C@@H]4F)c(=O)[nH]1 (single isomer, unassigned) [Compound I-45] | < 1 | 1 to 10 | –
Nc1nc2c(ncn2[C@@H]2O[C@@H]3COP(=O)(O)O[C@H]4C[C@H](Oc5ccncn5)C[C@@H]4COP(=O)(O)O[C@@H]2[C@@H]3O)c(=O)[nH]1 [Compound I-10, 2-amino-9-[(5R,7R,8R,12aR,14R,15aS,16R)-2,10,16-trihydroxy-2,10-dioxido-14-(pyrimidin-4-yloxy)decahydro-5,8-methanocyclopenta[1][1,3,6,9,11,2,10]pentaoxadiphosphacyclotetradecin-7-yl]-1,9-dihydro-6H-purin-6-one] | < 1 | 1 to 10 | –
Nc1nc2c(ncn2[C@@H]2O[C@@H]3COP(=O)(S)O[C@H]4C[C@H](Oc5ccncn5)C[C@@H]4COP(=O)(O)O[C@@H]2[C@@H]3O)c(=O)[nH]1 (stereo partly drawn) [Compound I-17, 2-amino-9-[(2S,5R,7R,8R,12aR,14R,15aS,16R)-10,16-dihydroxy-2,10-dioxido-14-(pyrimidin-4-yloxy)-2-sulfanyldecahydro-5,8-methanocyclopenta[1][1,3,6,9,11,2,10]pentaoxadiphosphacyclotetradecin-7-yl]-1,9-dihydro-6H-purin-6-one] | < 1 | 1 to 10 | –
Nc1nc2c(ncn2[C@@H]2O[C@@H]3COP(=O)(S)O[C@H]4C[C@H](Nc5ccncn5)C[C@@H]4COP(=O)(O)O[C@@H]2[C@@H]3O)c(=O)[nH]1 (stereo partly drawn) [Compound I-18, 2-amino-9-[(2S,5R,7R,8R,12aR,14R,15aS,16R)-10,16-dihydroxy-2,10-dioxido-14-(pyrimidin-4-ylamino)-2-sulfanyldecahydro-5,8-methanocyclopenta[1][1,3,6,9,11,2,10]pentaoxadiphosphacyclotetradecin-7-yl]-1,9-dihydro-6H-purin-6-one] | < 1 | 1 to 10 | –
Nc1nc2c(ncn2[C@@H]2O[C@@H]3COP(=O)(S)O[C@@H]4[C@@H](COP(=O)(O)O[C@@H]2[C@@H]3F)C[C@@H](Nc2ccncn2)[C@@H]4F)c(=O)[nH]1 (stereo partly drawn) [Compound I-21, 2-amino-9-[(2S,5R,7R,8S,12aR,14R,15S,15aR,16R)-15,16-difluoro-10-hydroxy-2,10-dioxido-14-(pyrimidin-4-ylamino)-2-sulfanyldecahydro-5,8-methanocyclopenta[1][1,3,6,9,11,2,10]pentaoxadiphosphacyclotetradecin-7-yl]-1,9-dihydro-6H-purin-6-one] | < 1 | 1 to 10 | –
Nc1nc2c(ncn2[C@@H]2O[C@@H]3COP(=O)(O)O[C@@H]4[C@@H](COP(=O)(S)O[C@@H]2[C@@H]3F)C[C@@H](Nc2ccncn2)[C@@H]4F)c(=O)[nH]1 (stereo partly drawn) [Compound I-24a, 2-amino-9-[(5R,7R,8S,10S,12aR,14R,15S,15aR,16R)-15,16-difluoro-2-hydroxy-2,10-dioxido-14-(pyrimidin-4-ylamino)-10-sulfanyldecahydro-5,8-methanocyclopenta[1][1,3,6,9,11,2,10]pentaoxadiphosphacyclotetradecin-7-yl]-1,9-dihydro-6H-purin-6-one] | < 1 | 1 to 10 | –
Nc1nc2c(ncn2[C@@H]2O[C@@H]3COP(=O)(O)O[C@H]4C[C@H](Nc5ncncn5)C[C@@H]4COP(=O)(O)O[C@@H]2[C@@H]3O)c(=O)[nH]1 [Compound I-27, 2-amino-9-[(5R,7R,8R,12aR,14R,15aS,16R)-2,10,16-trihydroxy-2,10-dioxido-14-(1,3,5-triazin-2-ylamino)decahydro-5,8-methanocyclopenta[1][1,3,6,9,11,2,10]pentaoxadiphosphacyclotetradecin-7-yl]-1,9-dihydro-6H-purin-6-one] | < 1 | 10 to 25 | –
Nc1nc2c(ncn2[C@@H]2O[C@@H]3COP(=O)(S)O[C@H]4C[C@H](Nc5ncncc5F)C[C@@H]4COP(=O)(S)O[C@@H]2[C@@H]3O)c(=O)[nH]1 (stereo partly drawn) [Compound I-34a, 2-amino-9-{(2S,5R,7R,8R,10S,12aR,14R,15aS,16R)-14-[(5-fluoropyrimidin-4-yl)amino]-16-hydroxy-2,10-dioxido-2,10-disulfanyldecahydro-5,8-methanocyclopenta[1][1,3,6,9,11,2,10]pentaoxadiphosphacyclotetradecin-7-yl}-1,9-dihydro-6H-purin-6-one] | < 1 | < 1 | –
Nc1nc2c(ncn2[C@@H]2O[C@@H]3COP(=O)(S)O[C@H]4C[C@H](Nc5ncncc5F)C[C@@H]4COP(=O)(S)O[C@@H]2[C@@H]3O)c(=O)[nH]1 (stereo partly drawn) [Compound I-34b, 2-amino-9-{(2S,5R,7R,8R,10S,12aR,14R,15aS,16R)-14-[(5-fluoropyrimidin-4-yl)amino]-16-hydroxy-2,10-dioxido-2,10-disulfanyldecahydro-5,8-methanocyclopenta [1][1,3,6,9,11,2,10]pentaoxadiphosphacyclotetradecin-7-yl}-1,9-dihydro-6H-purin-6-one] | < 1 | – | 1 to 10
Nc1nc2c(ncn2[C@@H]2O[C@@H]3COP(=O)(S)O[C@@H]4[C@@H](COP(=O)(S)O[C@@H]2[C@@H]3F)C[C@@H](Nc2ccncn2)[C@@H]4F)c(=O)[nH]1 (stereo partly drawn) [Compound I-38a, 2-amino-9-[(2S,5R,7R,8S,10S,12aR,14R,15S,15aR,16R)-15,16-difluoro-2,10-dioxido-14-(pyrimidin-4-ylamino)-2,10-disulfanyldecahydro-5,8-methanocyclopenta[1][1,3,6,9,11,2,10]pentaoxadiphosphacyclotetradecin-7-yl]-1,9-dihydro-6H-purin-6-one] | < 1 | 1 to 10 | –
Nc1nc2c(ncn2[C@@H]2O[C@@H]3COP(=O)(O)O[C@@H]4[C@@H](COP(=O)(O)O[C@@H]2[C@@H]3O)C[C@@H](Nc2ncncn2)[C@@H]4F)c(=O)[nH]1 [Compound I-40, 2-amino-9-[(5R,7R,8R,12aR,14R,15S,15aR,16R)-15-fluoro-2,10,16-trihydroxy-2,10-dioxido-14-(1,3,5-triazin-2-ylamino)decahydro-5,8-methanocyclopenta[1][1,3,6,9,11,2,10]pentaoxadiphosphacyclotetradecin-7-yl]-1,9-dihydro-6H-purin-6-one] | < 1 | 10 to 25 | –
Nc1nc2c(ncn2[C@@H]2O[C@@H]3COP(=O)(O)O[C@@H]4[C@@H](COP(=O)(O)O[C@@H]2[C@@H]3O)C[C@@H](Nc2ccncn2)[C@@H]4F)c(=O)[nH]1 [Compound I-46, 2-amino-9-[(5R,7R,8R,12aR,14R,15S,15aR,16R)-15-fluoro-2,10,16-trihydroxy-2,10-dioxido-14-(pyrimidin-4-ylamino)decahydro-5,8-methanocyclopenta[1][1,3,6,9,11,2,10]pentaoxadiphosphacyclotetradecin-7-yl]-1,9-dihydro-6H-purin-6-one] | < 1 | 10 to 25 | –
